Experiments:
Test in all cases: relative viability (nuclei count vs DMSO), 5 days (fraction); higher = more cells survive
[1] = compound: CS(=O)(=O)N1CCN(Cc2cc3nc(-c4cccc5[nH]ncc45)nc(N4CCOCC4)c3s2)CC1 [Pictilisib] + CCNC(=O)c1noc(-c2cc(C(C)C)c(O)cc2O)c1-c1ccc(CN2CCOCC2)cc1 [Luminespib] (partner 0.01 µM)
In short: (§1)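 Cells from lung cancer lines were seeded into 1536-well plates and, one day later, dosed by pin tool. Treatments were either a single drug or a fixed dose of an anchor drug with five library-drug doses (not always all listed) in √10 steps. After 5 days, nuclei were stained in a one-step fixation (final 0.05% Triton X-100, 1% formaldehyde, 1 ug/ml Hoechst) and counted on 4× images, and relative viability is the treated-to-vehicle nuclei ratio, as the median of duplicate plates.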

[2] = compound: NC1(c2ccc(-c3nc4ccn5c(=O)[nH]nc5c4cc3-c3ccccc3)cc2)CCC1 [MK-2206] + COc1cccc2cc(-c3nc([C@H]4CC[C@H](C(=O)O)CC4)n4ncnc(N)c34)[nH]c12 [OSI-027] (partner 0.5 µM)
In short: as §1

[3] = compound: NC1(c2ccc(-c3nc4ccn5c(=O)[nH]nc5c4cc3-c3ccccc3)cc2)CCC1 [MK-2206] + Cc1cc(Nc2cc(N3CCN(C)CC3)nc(Sc3ccc(NC(=O)C4CC4)cc3)n2)n[nH]1 [Tozasertib] (partner 0.1 µM)
In short: as §1

[4] = compound: NC1(c2ccc(-c3nc4ccn5c(=O)[nH]nc5c4cc3-c3ccccc3)cc2)CCC1 [MK-2206] + Cc1nc(NC(=O)N2CCC[C@H]2C(N)=O)sc1-c1ccnc(C(C)(C)C(F)(F)F)c1 [Alpelisib] (partner 2 µM)
In short: as §1

[5] = compound: CS(=O)(=O)N1CCN(Cc2cc3nc(-c4cccc5[nH]ncc45)nc(N4CCOCC4)c3s2)CC1 [Pictilisib] + CC(C)C[C@H](NC(=O)[C@H](Cc1ccccc1)NC(=O)c1cnccn1)B(O)O [Bortezomib] (partner 0.002 µM)
In short: as §1

Cell Line | relative viability ([1]; first compound 0.02 µM) | relative viability ([1]; first compound 0.06325 µM) | relative viability ([1]; first compound 0.6325 µM) | relative viability ([1]; first compound 2 µM) | relative viability ([2]; first compound 0.01 µM) | relative viability ([2]; first compound 0.03162 µM) | relative viability ([2]; first compound 0.3162 µM) | relative viability ([2]; first compound 1 µM) | relative viability ([3]; first compound 0.01 µM) | relative viability ([3]; first compound 0.03162 µM) | relative viability ([3]; first compound 0.3162 µM) | relative viability ([3]; first compound 1 µM) | relative viability ([4]; first compound 0.01 µM) | relative viability ([4]; first compound 0.03162 µM) | relative viability ([4]; first compound 0.3162 µM) | relative viability ([4]; first compound 1 µM) | relative viability ([5]; first compound 0.02 µM) | relative viability ([5]; first compound 0.06325 µM) | relative viability ([5]; first compound 0.6325 µM) | relative viability ([5]; first compound 2 µM)
NCI-H2170 | 0.715 | 0.65 | 0.419 | 0.166 | 0.747 | 0.701 | 0.625 | 0.588 | 0.789 | 0.717 | 0.659 | 0.763 | 0.82 | 0.835 | 0.755 | 0.776 | – | – | – | –
A549 | – | – | – | – | – | – | – | – | – | – | – | – | 0.841 | 0.791 | 0.534 | 0.529 | – | – | – | –
NCI-H522 | 1.01 | 0.939 | 0.894 | 0.788 | 0.867 | 0.726 | 0.615 | 0.631 | 0.593 | 0.518 | 0.62 | 0.513 | – | – | – | – | – | – | – | –
NCI-H1650 | 0.224 | 0.175 | 0.201 | 0.207 | 0.58 | 0.66 | 0.488 | 0.39 | 0.364 | 0.377 | 0.408 | 0.346 | – | – | – | – | 0.199 | 0.205 | 0.207 | 0.172
NCI-H1648 | – | – | – | – | 0.256 | 0.246 | 0.279 | 0.251 | 0.508 | 0.689 | 0.657 | 0.504 | – | – | – | – | – | – | – | –
NCI-H2342 | 0.669 | 0.586 | 0.588 | 0.365 | 0.649 | 0.614 | 0.555 | 0.484 | 0.608 | 0.535 | 0.452 | 0.402 | – | – | – | – | – | – | – | –
Calu-6 | – | – | – | – | – | – | – | – | – | – | – | – | 1.13 | 1.01 | 0.994 | 0.909 | 1.09 | 0.933 | 0.925 | 0.894
